{
  "source": "patent US8188135B2",
  "about": "“Compounds as cannabinoid receptor ligands” (priority 2008, dated 2012)",
  "key": {"rat CB2": {"target": "T1, rat CB2 (Rattus norvegicus, UniProt Q9QZN9)", "T1 sequence (Q9QZN9 1-360)": "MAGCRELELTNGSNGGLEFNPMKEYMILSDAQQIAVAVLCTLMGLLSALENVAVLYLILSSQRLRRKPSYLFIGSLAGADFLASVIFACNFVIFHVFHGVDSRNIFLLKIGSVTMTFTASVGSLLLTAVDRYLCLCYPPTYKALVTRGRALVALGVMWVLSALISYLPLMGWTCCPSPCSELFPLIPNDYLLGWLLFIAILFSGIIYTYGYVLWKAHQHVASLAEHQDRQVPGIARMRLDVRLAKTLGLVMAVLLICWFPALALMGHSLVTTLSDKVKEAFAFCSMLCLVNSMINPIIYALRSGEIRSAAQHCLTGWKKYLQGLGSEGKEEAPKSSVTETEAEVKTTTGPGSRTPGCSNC", "test": "rat CB2 radioligand binding assay ([3H]CP 55,940 competition)", "parameters": "expressed in transfected cells; host or cells: HEK293", "conditions": "HEK293 membranes, 0.5 nM [3H]CP 55,940; for Ki: rat CB2 (Ki, nM)", "procedure": "(§1) The CB1 and CB2 radioligand binding assays described herein are utilized to ascertain the affinity of compounds of the present application for binding to CB2 relative to CB1 receptors.\nHEK293 cells stably expressing rat CB2 receptors were grown until a confluent monolayer was formed. Briefly, the cells were harvested and homogenized in TE buffer (50 mM Tris-HCl, 1 mM MgCl2, and 1 mM EDTA) using a polytron for 2×10 second bursts in the presence of protease inhibitors, followed by centrifugation at 45,000×g for 20 minutes. The final membrane pellet was re-homogenized in storage buffer (50 mM Tris-HCl, 1 mM MgCl2, and 1 mM EDTA and 10% sucrose) and frozen at −78° C. until used. Saturation binding reactions were initiated by the addition of membrane preparation (protein concentration of 20 μg/well for rat CB2) into wells of a deep well plate containing [^3H]CP 55,940 (120 Ci/mmol, a nonselective CB agonist commercially available from Tocris) in assay buffer (50 mM Tris, 2.5 mM EDTA, 5 mM MgCl2, and 0.5 mg/mL fatty acid free BSA, pH 7.4). After 45 min incubation at 30° C., binding reaction was terminated by the addition of […] of cold assay buffer followed by rapid vacuum filtration through a UniFilter-96 GF/C filter plates (pre-soaked in 1 mg/mL BSA for 2 hours). The bound activity was counted in a TopCount using Microscint-20. Saturation experiments were conducted with twelve concentrations of [^3H]CP 55,940 ranging from 0.01 to 8 nM. Competition experiments were conducted with 0.5 nM [^3H]CP 55,940 and five concentrations of displacing ligands selected from the range of 0.01 nM to 10 μM. The addition of 10 μM unlabeled CP 55,940 (Tocris, Ellisville, Mo.) was used to assess nonspecific binding."}, "human CB2 receptors": {"target": "T2, human CB2 receptors (Homo sapiens, UniProt P34972)", "T2 construct": "expressed in transfected cells; host or cells: HEK293", "T2 sequence (P34972 whole entry)": "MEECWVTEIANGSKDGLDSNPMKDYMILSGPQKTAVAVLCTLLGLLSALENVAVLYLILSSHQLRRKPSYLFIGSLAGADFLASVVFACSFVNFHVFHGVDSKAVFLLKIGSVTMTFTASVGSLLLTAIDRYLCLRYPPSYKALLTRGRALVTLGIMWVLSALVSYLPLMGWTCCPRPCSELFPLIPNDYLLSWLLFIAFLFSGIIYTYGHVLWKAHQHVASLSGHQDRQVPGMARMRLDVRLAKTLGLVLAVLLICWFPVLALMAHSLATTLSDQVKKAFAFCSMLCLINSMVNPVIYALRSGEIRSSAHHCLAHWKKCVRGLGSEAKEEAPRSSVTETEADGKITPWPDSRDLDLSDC", "test": "human CB2 radioligand binding assay ([3H]CP 55,940 competition)", "conditions": "HEK293 membranes, 0.5 nM [3H]CP 55,940; for Ki: human CB2 (Ki, nM)", "procedure": "as §1\nHEK293 cells stably expressing human CB2 receptors were grown until a confluent monolayer was formed. Briefly, the cells were harvested and homogenized in TE buffer (50 mM Tris-HCl, 1 mM MgCl2, and 1 mM EDTA) using a polytron for 2×10 second bursts in the presence of protease inhibitors, followed by centrifugation at 45,000×g for 20 minutes. The final membrane pellet was re-homogenized in storage buffer (50 mM Tris-HCl, 1 mM MgCl2, and 1 mM EDTA and 10% sucrose) and frozen at −78° C. until used. Saturation binding reactions were initiated by the addition of membrane preparation (protein concentration of 5 μg/well for human CB2) into wells of a deep well plate containing [^3H]CP 55,940 (120 Ci/mmol, a nonselective CB agonist commercially available from Tocris) in assay buffer (50 mM Tris, 2.5 mM EDTA, 5 mM MgCl2, and 0.5 mg/mL fatty acid free BSA, pH 7.4). After 90 min incubation at 30° C., binding reaction was terminated by the addition of 300 μL/well of cold assay buffer followed by rapid vacuum filtration through a UniFilter-96 GF/C filter plates (pre-soaked in 1 mg/mL BSA for 2 hours). The bound activity was counted in a TopCount using Microscint-20. Saturation experiments were conducted with twelve concentrations of [^3H]CP 55,940 ranging from 0.01 to 8 nM. Competition experiments were conducted with 0.5 nM [^3H]CP 55,940 and five concentrations (0.01 nM to 10 μM) of displacing ligands. The addition of 10 μM unlabeled CP 55,940 (Tocris, Ellisville, Mo.) was used to assess nonspecific binding."}},
  "note": "pKi: −log10 of the molar value. Where two headings read alike, the source gives them in different places.",
  "data": [
    {"smiles": "CC(C)(C)c1nn(CCCC#N)/c(=N/C(=O)c2cc(C(F)(F)F)ccc2OCCCC#N)s1", "note": "[Example 85, N-[(2Z)-5-tert-butyl-3-(3-cyanopropyl)-1,3,4-thiadiazol-2(3H)-ylidene]-2-(3-cyanopropoxy)-5-(trifluoromethyl)benzamide]", "values": [
      {"measurement": "Ki", "setting": "rat CB2", "result": 2.5, "unit": "nM"},
      {"measurement": "Ki", "setting": "human CB2 receptors", "result": 20, "unit": "nM"}
    ]},
    {"smiles": "CCCCn1ccc(C(C)(C)C)c/c1=N\\C(=O)c1cc(C(F)(F)F)ccc1OCC(C)(C)O", "note": "[Example 92, N-[(2E)-1-butyl-4-tert-butylpyridin-2(1H)-ylidene]-2-(2-hydroxy-2-methylpropoxy)-5-(trifluoromethyl)benzamide]", "values": [
      {"measurement": "Ki", "setting": "rat CB2", "result": 47, "unit": "nM"},
      {"measurement": "Ki", "setting": "human CB2 receptors", "result": 73, "unit": "nM"}
    ]},
    {"smiles": "CCCCn1cc(C(C)(C)C)o/c1=N\\C(=O)c1cc(C(F)(F)F)ccc1OCC(C)(C)O", "note": "[Example 93, N-[(2Z)-3-butyl-5-tert-butyl-1,3-oxazol-2(3H)-ylidene]-2-(2-hydroxy-2-methylpropoxy)-5-(trifluoromethyl)benzamide]", "values": [
      {"measurement": "Ki", "setting": "rat CB2", "result": 3.9, "unit": "nM"},
      {"measurement": "Ki", "setting": "human CB2 receptors", "result": 3.6, "unit": "nM"}
    ]},
    {"smiles": "CCCCN1CC(C)(C)S/C1=N\\C(=O)c1cc(C(F)(F)F)ccc1OCC(C)(C)O", "note": "[Example 94, N-[(2Z)-3-butyl-5,5-dimethyl-1,3-thiazolidin-2-ylidene]-2-(2-hydroxy-2-methylpropoxy)-5-(trifluoromethyl)benzamide]", "values": [
      {"measurement": "Ki", "setting": "rat CB2", "result": 5, "unit": "nM"},
      {"measurement": "Ki", "setting": "human CB2 receptors", "result": 3.9, "unit": "nM"}
    ]},
    {"smiles": "Cn1c(C(C)(C)C)c/c(=N\\C(=O)c2cc(C(F)(F)F)ccc2OCC(C)(C)O)n1CC1CCOCC1", "note": "[Example 95, N-[(3E)-5-tert-butyl-1-methyl-2-(tetrahydro-2H-pyran-4-ylmethyl)-1,2-dihydro-3 H-pyrazol-3-ylidene]-2-(2-hydroxy-2-methylpropoxy)-5-(trifluoromethyl)benzamide]", "values": [
      {"measurement": "pKi", "setting": "rat CB2; read-out: rat CB2 (Ki)", "result": 6.48},
      {"measurement": "pKi", "setting": "human CB2 receptors; read-out: human CB2 (Ki)", "result": "< 6.00"}
    ]},
    {"smiles": "CC(C)(O)COc1ccc(C(F)(F)F)cc1C(=O)/N=c1\\sc(C(C)(C)C)nn1CC1CCO1", "note": "(stereo not shown) [Example 96, N-[(2Z)-5-tert-butyl-3-(oxetan-2-ylmethyl)-1,3,4-thiadiazol-2(3H)-ylidene]-2-(2-hydroxy-2-methylpropoxy)-5-(trifluoromethyl)benzamide]", "values": [
      {"measurement": "Ki", "setting": "rat CB2", "result": 6.1, "unit": "nM"},
      {"measurement": "Ki", "setting": "human CB2 receptors", "result": 9.4, "unit": "nM"}
    ]},
    {"smiles": "CC(C)(O)COc1ccc(C(F)(F)F)cc1C(=O)/N=c1\\sc(C(C)(C)C)nn1CC1(C)COC1", "note": "[Example 97, N-[(2Z)-5-tert-butyl-3-[(3-methyloxetan-3-yl)methyl]-1,3,4-thiadiazol-2(3 H)-ylidene]-2-(2-hydroxy-2-methylpropoxy)-5-(trifluoromethyl)benzamide]", "values": [
      {"measurement": "Ki", "setting": "rat CB2", "result": 13, "unit": "nM"},
      {"measurement": "Ki", "setting": "human CB2 receptors", "result": 31.6, "unit": "nM"}
    ]},
    {"smiles": "C[C@H](O)COc1ccc(C(F)(F)F)cc1C(=O)/N=c1\\cc(C(C)(C)C)n(C)n1C[C@H]1CCCO1", "note": "[Example 98, N-{(3E)-5-tert-butyl-1-methyl-2-[(2R)-tetrahydrofuran-2-ylmethyl]-1,2-dihydro-3 H-pyrazol-3-ylidene}-2-{[(2S)-2-hydroxypropyl]oxy}-5-(trifluoromethyl)benzamide]", "values": [
      {"measurement": "Ki", "setting": "rat CB2", "result": 6.6, "unit": "nM"},
      {"measurement": "Ki", "setting": "human CB2 receptors", "result": 4.6, "unit": "nM"}
    ]},
    {"smiles": "CCCCn1oc(C(C)(C)C)c/c1=N\\C(=O)c1cc(C(F)(F)F)ccc1OCC(C)(C)O", "note": "[Example 100, N-[(3E)-2-butyl-5-tert-butylisoxazol-3(2H)-ylidene]-2-(2-hydroxy-2-methylpropoxy)-5-(trifluoromethyl)benzamide]", "values": [
      {"measurement": "Ki", "setting": "rat CB2", "result": 1.3, "unit": "nM"},
      {"measurement": "Ki", "setting": "human CB2 receptors", "result": 1.7, "unit": "nM"}
    ]},
    {"smiles": "C=CC(O)COc1ccc(C(F)(F)F)cc1C(=O)/N=c1\\cc(C(C)(C)C)n(C)n1C[C@H]1CCCO1", "note": "(stereo partly drawn) [Example 101, N-{(3E)-5-tert-butyl-1-methyl-2-[(2R)-tetrahydrofuran-2-ylmethyl]-1,2-dihydro-3 H-pyrazol-3-ylidene}-2-[(2-hydroxybut-3-enyl)oxy]-5-(trifluoromethyl)benzamide]", "values": [
      {"measurement": "Ki", "setting": "rat CB2", "result": 2.8, "unit": "nM"},
      {"measurement": "Ki", "setting": "human CB2 receptors", "result": 1, "unit": "nM"}
    ]},
    {"smiles": "C[C@H](O)[C@H](C)Oc1ccc(C(F)(F)F)cc1C(=O)/N=c1\\cc(C(C)(C)C)n(C)n1C[C@H]1CCCO1", "note": "[Example 103, N-{(3E)-5-tert-butyl-1-methyl-2-[(2R)-tetrahydrofuran-2-ylmethyl]-1,2-dihydro-3 H-pyrazol-3-ylidene}-2-{[(1S,2S)-2-hydroxy-1-methylpropyl]oxy}-5-(trifluoromethyl)benzamide]", "values": [
      {"measurement": "Ki", "setting": "rat CB2", "result": 1.7, "unit": "nM"},
      {"measurement": "Ki", "setting": "human CB2 receptors", "result": 3.8, "unit": "nM"}
    ]}
  ]
}
